Values after ≈ are worked out from the molar mass of the structure shown. Active and inactive are the calls of the source. No cut-off for these calls is given here.
What was measured:
Pseudomonas aeruginosa = assay: Antibacterial activity against Pseudomonas aeruginosa assessed as reduction in bacterial cell growth incubated for 24 hrs by filter paper assay; assay type: functional
Ralstonia solanacearum = assay: Antibacterial activity against Ralstonia solanacearum assessed as reduction in bacterial cell growth incubated for 24 hrs by filter paper assay; assay type: functional
Escherichia coli = assay: Antibacterial activity against Escherichia coli assessed as reduction in bacterial cell growth incubated for 24 hrs by filter paper assay; assay type: functional
Bacillus cereus = assay: Antibacterial activity against Bacillus cereus assessed as reduction in bacterial cell growth incubated for 24 hrs by filter paper assay; assay type: functional
Candida = assay: Antifungal activity against […] assessed as reduction in fungal cell growth incubated for 48 hrs by serial dilution method; assay type: functional
Fusarium oxysporum = assay: Antifungal activity against Fusarium oxysporum assessed as reduction in fungal cell growth incubated for 48 hrs by serial dilution method; assay type: functional
Curvularia lunata = assay: Antifungal activity against Curvularia lunata assessed as reduction in fungal cell growth incubated for 48 hrs by serial dilution method; assay type: functional
[1] = tested on: Colletotrichum orbiculare; assay: Antifungal activity against Colletotrichum orbiculare assessed as reduction in fungal cell growth incubated for 48 hrs by serial dilution method; assay type: functional
Cryptococcus neoformans = assay: Antifungal activity against Cryptococcus neoformans assessed as reduction in fungal cell growth incubated for 48 hrs by serial dilution method; assay type: functional
[2] = tested on: Fusarium oxysporum f. sp. vasinfectum; assay: Antifungal activity against Fusarium oxysporum sp. vasinfectum assessed as reduction in fungal cell growth incubated for 48 hrs by serial dilution method; assay type: functional
Candida tropicalis = assay: Antifungal activity against Candida tropicalis assessed as reduction in fungal cell growth incubated for 48 hrs by serial dilution method; assay type: functional
Verticillium dahliae = assay: Antifungal activity against Verticillium dahliae assessed as reduction in fungal cell growth incubated for 48 hrs by serial dilution method; assay type: functional
Cytospora = assay: Antifungal activity against Cytospora juglandis assessed as reduction in fungal cell growth incubated for 48 hrs by serial dilution method; assay type: functional
Staphylococcus aureus = assay: Antibacterial activity against Staphylococcus aureus assessed as reduction in bacterial cell growth incubated for 24 hrs by filter paper assay; assay type: functional
Acetylcholinesterase = Acetylcholinesterase (Electrophorus electricus, UniProt O42275); assay: Inhibition of electric eel AChE by Ellman's colorimetry
Sequence of Acetylcholinesterase (O42275 whole entry): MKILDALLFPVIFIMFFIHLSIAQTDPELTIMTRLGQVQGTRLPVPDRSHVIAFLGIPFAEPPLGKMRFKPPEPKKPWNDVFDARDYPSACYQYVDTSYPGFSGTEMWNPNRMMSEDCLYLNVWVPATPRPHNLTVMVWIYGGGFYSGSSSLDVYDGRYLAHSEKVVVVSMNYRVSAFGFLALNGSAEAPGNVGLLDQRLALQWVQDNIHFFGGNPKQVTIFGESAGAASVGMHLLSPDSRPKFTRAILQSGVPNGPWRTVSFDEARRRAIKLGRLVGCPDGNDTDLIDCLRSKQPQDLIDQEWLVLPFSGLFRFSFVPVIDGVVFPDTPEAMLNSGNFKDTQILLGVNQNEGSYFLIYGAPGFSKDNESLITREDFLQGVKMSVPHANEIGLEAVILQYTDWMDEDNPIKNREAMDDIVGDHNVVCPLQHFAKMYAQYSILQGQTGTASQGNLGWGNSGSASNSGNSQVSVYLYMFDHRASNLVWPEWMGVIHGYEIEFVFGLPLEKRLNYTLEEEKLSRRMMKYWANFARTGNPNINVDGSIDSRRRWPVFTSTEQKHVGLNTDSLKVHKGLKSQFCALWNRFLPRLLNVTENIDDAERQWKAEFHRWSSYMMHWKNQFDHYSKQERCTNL

Aspergillus flavus = assay: Antifungal activity against Aspergillus flavus assessed as reduction in fungal cell growth incubated for 48 hrs by serial dilution method; assay type: functional
Penicillium citrinum = assay: Antifungal activity against Penicillium citrinum assessed as reduction in fungal cell growth incubated for 48 hrs by serial dilution method; assay type: functional
Aspergillus niger = assay: Antifungal activity against Aspergillus niger assessed as reduction in fungal cell growth incubated for 48 hrs by serial dilution method; assay type: functional

| Compound | MIC (Pseudomonas aeruginosa) | MIC (Ralstonia solanacearum) | MIC (Escherichia coli) | MIC (Bacillus cereus) | MIC (Candida) | MIC (Fusarium oxysporum) | MIC (Curvularia lunata) | MIC [1] | MIC (Cryptococcus neoformans) | MIC [2] | MIC (Candida tropicalis) | MIC (Verticillium dahliae) | MIC (Cytospora) | MIC (Staphylococcus aureus) | IC50 (Acetylcholinesterase) [µM] | MIC (Aspergillus flavus) | MIC (Penicillium citrinum) | MIC (Aspergillus niger) |
| --- | --- | --- | --- | --- | --- | --- | --- | --- | --- | --- | --- | --- | --- | --- | --- | --- | --- | --- |
| CN[C@@H]1[C@H](O[C@H]2[C@H](O[C@H]3[C@H](O)[C@@H](O)[C@H](N=C(N)N)[C@@H](O)[C@@H]3N=C(N)N)O[C@@H](C)[C@]2(O)C=O)O[C@@H](CO)[C@H](O)[C@H]1O [STREPTOMYCIN] | inactive | 250 µg/mL (≈ 430 µM) | 31.2 µg/mL (≈ 53.7 µM) | – | – | – | – | – | – | – | – | – | – | – | – | – | – | – |
| CC(=O)N1CCCC2(O)c3ccccc3N(C)C12 (stereo unspecified) | 250 µg/mL (≈ 1010 µM) | 250 µg/mL (≈ 1010 µM) | inactive | inactive | inactive | inactive | inactive | inactive | inactive | inactive | inactive | inactive | inactive | 250 µg/mL (≈ 1010 µM) | 1.22 | inactive | inactive | inactive |
| CCCCCCC(=O)N1CCC2(Cc3ccccc3C)c3ccccc3N(Cc3ccccc3C)C12 (stereo unspecified) | 250 µg/mL (≈ 520 µM) | 125 µg/mL (≈ 260 µM) | 250 µg/mL (≈ 520 µM) | inactive | 250 µg/mL (≈ 520 µM) | 125 µg/mL (≈ 260 µM) | 125 µg/mL (≈ 260 µM) | 250 µg/mL (≈ 520 µM) | inactive | 250 µg/mL (≈ 520 µM) | 250 µg/mL (≈ 520 µM) | 62.5 µg/mL (≈ 130 µM) | 62.5 µg/mL (≈ 130 µM) | inactive | 90.8 | 250 µg/mL (≈ 520 µM) | 125 µg/mL (≈ 260 µM) | 250 µg/mL (≈ 520 µM) |
| CC1(C)S[C@@H]2[C@H](NC(=O)Cc3ccccc3)C(=O)N2[C@H]1C(=O)O [PENICILLIN G] | – | – | – | 7.81 µg/mL (≈ 23.4 µM) | – | – | – | – | – | – | – | – | – | 15.6 µg/mL (≈ 46.7 µM) | – | – | – | – |
| OC(Cn1cncn1)(Cn1cncn1)c1ccc(F)cc1F [FLUCONAZOLE] | – | – | – | – | 62.5 µg/mL (≈ 204 µM) | – | – | – | – | – | 250 µg/mL (≈ 816 µM) | – | – | – | – | – | – | – |
| GENTAMICIN | 1.96 µg/mL | 62.5 µg/mL | 1.96 µg/mL | – | – | – | – | – | – | – | – | – | – | – | – | – | – | – |
| COc1ccc(C(=O)N2CCC3(Cc4ccccc4C)c4ccccc4N(Cc4ccccc4C)C23)cc1 (stereo unspecified) | inactive | inactive | inactive | inactive | inactive | 250 µg/mL (≈ 497 µM) | inactive | inactive | inactive | inactive | inactive | 250 µg/mL (≈ 497 µM) | 250 µg/mL (≈ 497 µM) | inactive | 126 | 250 µg/mL (≈ 497 µM) | inactive | 250 µg/mL (≈ 497 µM) |
| CCC(=O)N1CCC2(Cc3cccc(C)c3)c3ccccc3N(Cc3cccc(C)c3)C12 (stereo unspecified) | inactive | inactive | 250 µg/mL (≈ 589 µM) | 31.2 µg/mL (≈ 73.6 µM) | 250 µg/mL (≈ 589 µM) | 125 µg/mL (≈ 294 µM) | 250 µg/mL (≈ 589 µM) | 250 µg/mL (≈ 589 µM) | inactive | inactive | 250 µg/mL (≈ 589 µM) | 250 µg/mL (≈ 589 µM) | 62.5 µg/mL (≈ 147 µM) | 62.5 µg/mL (≈ 147 µM) | 0.919 | 250 µg/mL (≈ 589 µM) | inactive | 125 µg/mL (≈ 294 µM) |
| CCCCCC(=O)N1CCC2(Cc3cccc(C)c3)c3ccccc3N(Cc3cccc(C)c3)C12 (stereo unspecified) | 125 µg/mL (≈ 268 µM) | 250 µg/mL (≈ 536 µM) | inactive | 250 µg/mL (≈ 536 µM) | 250 µg/mL (≈ 536 µM) | 125 µg/mL (≈ 268 µM) | inactive | 250 µg/mL (≈ 536 µM) | inactive | inactive | 250 µg/mL (≈ 536 µM) | 15.6 µg/mL (≈ 33.5 µM) | 125 µg/mL (≈ 268 µM) | inactive | 142 | 250 µg/mL (≈ 536 µM) | 250 µg/mL (≈ 536 µM) | 250 µg/mL (≈ 536 µM) |
| Cc1cccc(CN2c3ccccc3C3(Cc4cccc(C)c4)CCN(C(=O)c4ccccc4)C23)c1 (stereo unspecified) | inactive | inactive | inactive | inactive | inactive | 250 µg/mL (≈ 529 µM) | inactive | 250 µg/mL (≈ 529 µM) | inactive | 62.5 µg/mL (≈ 132 µM) | inactive | 31.2 µg/mL (≈ 66.1 µM) | 62.5 µg/mL (≈ 132 µM) | inactive | 45.1 | 250 µg/mL (≈ 529 µM) | 250 µg/mL (≈ 529 µM) | 250 µg/mL (≈ 529 µM) |
| Cc1cccc(CN2c3ccccc3C3(Cc4cccc(C)c4)CCN(C(=O)C(F)(F)F)C23)c1 (stereo unspecified) | inactive | inactive | inactive | inactive | inactive | 250 µg/mL (≈ 538 µM) | inactive | inactive | inactive | inactive | inactive | inactive | 250 µg/mL (≈ 538 µM) | inactive | 3.38 | 250 µg/mL (≈ 538 µM) | inactive | inactive |
| Cc1cccc(CN2c3ccccc3C3(Cc4cccc(C)c4)CCN(C(=O)C(C)C)C23)c1 (stereo unspecified) | inactive | inactive | 250 µg/mL (≈ 570 µM) | 15.6 µg/mL (≈ 35.6 µM) | 250 µg/mL (≈ 570 µM) | 125 µg/mL (≈ 285 µM) | inactive | 250 µg/mL (≈ 570 µM) | inactive | inactive | 250 µg/mL (≈ 570 µM) | 250 µg/mL (≈ 570 µM) | 250 µg/mL (≈ 570 µM) | inactive | 13.6 | 250 µg/mL (≈ 570 µM) | inactive | 250 µg/mL (≈ 570 µM) |
| Cc1ccccc1CN1c2ccccc2C2(Cc3ccccc3C)CCN(C(=O)C(F)(F)F)C12 (stereo unspecified) | inactive | inactive | inactive | inactive | 250 µg/mL (≈ 538 µM) | 250 µg/mL (≈ 538 µM) | 250 µg/mL (≈ 538 µM) | 250 µg/mL (≈ 538 µM) | inactive | inactive | 125 µg/mL (≈ 269 µM) | 125 µg/mL (≈ 269 µM) | 250 µg/mL (≈ 538 µM) | inactive | 7.08 | 250 µg/mL (≈ 538 µM) | inactive | 250 µg/mL (≈ 538 µM) |
| Cc1ccccc1CN1c2ccccc2C2(Cc3ccccc3C)CCN(C(=O)COc3ccccc3)C12 (stereo unspecified) | inactive | inactive | inactive | 250 µg/mL (≈ 497 µM) | 250 µg/mL (≈ 497 µM) | 250 µg/mL (≈ 497 µM) | inactive | 250 µg/mL (≈ 497 µM) | inactive | inactive | 250 µg/mL (≈ 497 µM) | 250 µg/mL (≈ 497 µM) | 250 µg/mL (≈ 497 µM) | inactive | 787 | 250 µg/mL (≈ 497 µM) | 125 µg/mL (≈ 249 µM) | 250 µg/mL (≈ 497 µM) |
| CCCCC(=O)N1CCC2(Cc3cccc(C)c3)c3ccccc3N(Cc3cccc(C)c3)C12 (stereo unspecified) | 125 µg/mL (≈ 276 µM) | 250 µg/mL (≈ 552 µM) | 250 µg/mL (≈ 552 µM) | 250 µg/mL (≈ 552 µM) | 250 µg/mL (≈ 552 µM) | 125 µg/mL (≈ 276 µM) | inactive | inactive | inactive | inactive | 250 µg/mL (≈ 552 µM) | 31.2 µg/mL (≈ 69 µM) | 250 µg/mL (≈ 552 µM) | 250 µg/mL (≈ 552 µM) | 0.133 | 250 µg/mL (≈ 552 µM) | 250 µg/mL (≈ 552 µM) | 250 µg/mL (≈ 552 µM) |
| Cc1ccc(S(=O)(=O)N2CCC3(Cc4cccc(C)c4)c4ccccc4N(Cc4cccc(C)c4)C23)cc1 (stereo unspecified) | inactive | inactive | inactive | 125 µg/mL (≈ 239 µM) | 250 µg/mL (≈ 478 µM) | 250 µg/mL (≈ 478 µM) | inactive | 250 µg/mL (≈ 478 µM) | inactive | 125 µg/mL (≈ 239 µM) | inactive | 62.5 µg/mL (≈ 120 µM) | 250 µg/mL (≈ 478 µM) | inactive | 12.8 | 250 µg/mL (≈ 478 µM) | inactive | 250 µg/mL (≈ 478 µM) |
| C[C@@H]1[C@H](O)[C@@H](C)/C=C/C=C/C=C/C=C/C=C/C=C/C=C/[C@H](O[C@@H]2O[C@H](C)[C@@H](O)[C@H](N)[C@@H]2O)C[C@@H]2O[C@](O)(C[C@@H](O)C[C@@H](O)[C@H](O)CC[C@@H](O)C[C@@H](O)CC(=O)O[C@H]1C)C[C@H](O)[C@H]2C(=O)O [AMPHOTERICIN B] | – | – | – | – | 250 µg/mL (≈ 271 µM) | – | – | – | 1.96 µg/mL (≈ 2.12 µM) | – | – | – | – | – | – | – | – | – |
| COC(=O)Nc1nc2ccccc2[nH]1 [CARBENDAZIM] | – | – | – | – | – | 125 µg/mL (≈ 654 µM) | 250 µg/mL (≈ 1310 µM) | 125 µg/mL (≈ 654 µM) | – | 62.5 µg/mL (≈ 327 µM) | – | 7.81 µg/mL (≈ 40.8 µM) | 31.2 µg/mL (≈ 163 µM) | – | – | 7.81 µg/mL (≈ 40.8 µM) | 1.96 µg/mL (≈ 10.3 µM) | inactive |
| N#Cc1c(Cl)c(Cl)c(Cl)c(C#N)c1Cl [CHLOROTHALONIL] | – | – | – | – | – | 62.5 µg/mL (≈ 235 µM) | 125 µg/mL (≈ 470 µM) | 250 µg/mL (≈ 940 µM) | – | 250 µg/mL (≈ 940 µM) | – | 31.2 µg/mL (≈ 118 µM) | 62.5 µg/mL (≈ 235 µM) | – | – | 7.81 µg/mL (≈ 29.4 µM) | 15.6 µg/mL (≈ 58.8 µM) | 15.6 µg/mL (≈ 58.8 µM) |

Reference: ChEMBL document CHEMBL4304804, “Synthesis and biological evaluation of calycanthaceous alkaloid analogs” (Bioorg Med Chem, 2019)
